Assay results taken from patent publication US6589937B1, “Peptides and nootropic agent” (Kabushiki Kaisha Yakult Honsha, priority 1996, dated 2003).
Where a SMILES comes first, the peptide text is derived from it. [ ]: non-standard residue; d: D form. The star is where a group is joined. X1 = N=C(N)NCCC[C@H](N)C(=O)N[C@@H](Cc1c[nH]cn1)C(=O)N1CCC[C@H]1C(=O)N[C@@H](CS*)C(=O)O; pGlu = O=C1CC[C@@H](C(=O)O)N1

Key:
[1] = Evaluation of brain transition (CNS distribution after i.v. administration); conditions: mouse, in vivo, iv
Procedure: C-AVP 4-9-000 (389 Ci/mmol) labeled with ^125I by the chloramine-T method was administered (i.v.) to mice in 1 μCi, ^125I-C-AVP 4-9-000 in plasma was quantitated by separating the methanol extract using Radio-HPLC.
In the case of AS22, the radioactivity contained in the trifluoroacetic acid precipitate fraction was made the ^125I-AS22 amount. Further, ^125I-C-AVP 4-9-000 was quantitated by separating the methanol extract using Radio-HPLC.

[2] = format: in vitro ADME, rat
Procedure: C-AVP 4-9 series compound can be hydrolyzed in brain by the action of prolyl endopeptidase, and it is considered that they are converted to AVP 4-9.
Therefore, 500 μM of C-AVP 4-9-000 were incubated (6 hr., 37° C.) with a rat cerebral homogenate (100 μg/rat) in the presence or in the absence of carbobenzoyloxy prolyl-prolinal (ZPP, 20 μM) as known as a potent inhibitor for propyl endopeptitase. After incubation metabolites were extracted with methanol. The metabolites were analyzed by HPLC. Further, ZPP is a specific inhibitor for prolyl endopeptidase. After methanol extraction, the metabolites were quantitated by the separation with HPLC.

[3] = PI value by isoelectrofocusing (capillary electrophoresis); format: physicochemical; conditions: peptide 5 μg, UV 214 nm
Procedure: Further, the PI value was analyzed by the isoelectrofocusing method for the peptide 5 μg using a capillary electrophoretic apparatus (Beckman P/ACE 5000) and an isoelectrofocusing kit (eCAP 3-10, Beckman). The detection was carried out by UV 214 nm.

rats = test: Passive avoidance test, administration 180 min before retention test; format: in vivo; conditions: rat, s.c., administered 3 hr before retention test
Procedure: The test solution in which each of these test drugs dissolved in saline was subcutaneously administered to rats. As to animals, male Wister rats (aged 7-9 weeks) were bought from Japan Charles River (JCR) and used after the preliminary feeding for more than one week. At the time of the preliminary feeding it lighted up from AM 8.00 to PM 8.00.
It was carried out by partially modifying the method of Ader R. R. (Psycon. Sci., 26, p125-128, 1972). Namely, rats were let stay in a light room of the passive avoidance test apparatus consisting of a light and dark rooms, and were let move freely for 2 min. After 45 min., the rats were let stay again in the light room. When the rats went into the dark room, the electric current 0.3 mA was applied for 30 sec. by Muromachikikai SGS-002 on the floor of the dark room. Further, in all processes of the experiment the rats were let move freely between the dark room and the light room. Each peptide was subcutaneously administered at 23 hr. (1 hr. before the retention test) after the electric shock. Subsequently, the rats were let stay in the light room after 1 hr. (24 hr. after the electric shock), the time (latency) when the rats went into the dark room was measured (retention test).
The test was carried out according to the test 2 except that the administration of the test solution was made at 21 hr. […]

Compound: N=C(N)NCCC[C@H](NC(=O)[C@@H]1CCCN1C(=O)[C@H](CSSC[C@H](NC(=O)[C@@H]1CCCN1C(=O)[C@H](Cc1c[nH]cn1)NC(=O)[C@@H](N)CCCNC(=N)N)C(=O)O)NC(=O)[C@H](CC(N)=O)NC(=O)[C@@H]1CCC(=O)N1)C(=O)NCC(N)=O [C-AVP 4-9-000] ([pGlu]NC(X1)PRG-NH2)
- transition into brain [1]: transited into brain in a sufficient concentration
- formation of AVP 4-9 after 6 hour's incubation [2]: the formation of AVP 4-9 was observed
- parent remaining after 6 hour's incubation ([2]; rat, brain homogenate, 6 h): scarcely remained

Compound: pGlu-Asn-Cys-Pro-Arg-Gly-NH2 ([pGlu]NCPRG-NH2) [AVP 4-9, 4-9 fragment of arginine vasopressin, control drug]
- PI values [3]: 9.27
- effectiveness in passive avoidance (latency) (rats): did not show any significant effectiveness
